Source: EPA's ToxRefDB 2

How the values were obtained:
mouse [1] = details: Subchronic oral toxicity in rodents, b6c3f1, Water, dose end: 10 week, group: systemic
mouse [2] = details: Carcinogenicity, b6c3f1, Oral, Water, dose end: 96 week, group: systemic
rat [3] = details: Subchronic oral toxicity in rodents, sprague dawley, Gavage/Intubation, dose end: 90 day, group: systemic
rat [4] = details: Carcinogenicity, fischer, Oral, Feed, dose end: 103 week, group: systemic
rat [5] = details: Subchronic oral toxicity in rodents, fischer, Feed, dose end: 13 week, group: systemic
mouse [6] = details: Subchronic oral toxicity in rodents, b6c3f1, Feed, dose end: 13 week, group: systemic
mouse [7] = details: Carcinogenicity, b6c3f1, Oral, Feed, dose end: 103 week, group: systemic
rat [8] = details: Combined chronic toxicity/carcinogenicity, sprague dawley, Oral, Feed, dose end: 24 month, group: systemic
mouse [9] = details: Carcinogenicity, cd1, Oral, Feed, dose end: 18 month, group: systemic
dog [10] = details: Chronic toxicity, beagle, Oral, Feed, dose end: 52 week, group: systemic
rat [11] = details: Prenatal developmental toxicity study, sprague dawley, Oral, Gavage/Intubation, dose end: 15 GD
rat [12] = details: Subchronic oral toxicity in rodents, sprague dawley, Feed, dose end: 90 day, group: systemic
rat [13] = details: Combined chronic toxicity/carcinogenicity; wistar; Oral; Feed; dose end: 2 year; group: systemic; systemic / in life observation / clinical signs / aggressive behavior + systemic / in life observation / clinical signs / excitation + …
dog [14] = details: Chronic toxicity; beagle; Oral; Capsule; dose end: 104 PND; group: systemic; systemic / in life observation / clinical signs / [other]
mouse [15] = details: Carcinogenicity; b6c3f1; Oral; Feed; dose end: 104 week; group: systemic; systemic / pathology microscopic / spleen / hematopoietic cell proliferation + systemic / pathology microscopic / stomach / hyperkeratosis
rat [16] = details: Multigenerational reproductive toxicity study; sprague dawley; Oral; Water; dose end: 1 generation; group: reproductive; reproductive / offspring survival early / litter size / litter size + reproductive / offspring survival early / live fetuses / live fetuses
mouse [17] = details: Subchronic oral toxicity in rodents, b6c3f1, Gavage/Intubation, dose end: 16 week, group: systemic
rat [18] = details: Subchronic oral toxicity in rodents, fischer, Gavage/Intubation, dose end: 16 week
rat [19] = details: Carcinogenicity, fischer, Oral, Gavage/Intubation, dose end: 2 year, group: systemic
mouse [20] = details: Carcinogenicity, b6c3f1, Oral, Gavage/Intubation, dose end: 2 year, group: systemic
mouse [21] = details: Carcinogenicity, b6c3f1, Oral, Gavage/Intubation, dose end: 91 week, group: systemic
rat [22] = details: Carcinogenicity; other; Oral; Feed; dose end: 78 week; group: systemic; systemic / in life observation / clinical signs / abdominogenital staining + systemic / in life observation / clinical signs / fur (altered …
[23] = systemic / in life observation / mortality / mortality + systemic / pathology microscopic / kidney / degeneration + systemic / pathology …
[24] = systemic / organ weight / brain / relative to body weight
[25] = systemic / organ weight / brain / relative to body weight + systemic / organ weight / heart / relative to body weight + systemic / organ …
[26] = systemic / clinical chemistry / creatinine / creatinine + systemic / clinical chemistry / phosphorus / phosphorus + systemic / clinical …
[27] = systemic / in life observation / clinical signs / general pallor + systemic / in life observation / clinical signs / lethargy + systemic / …
[28] = systemic / in life observation / body weight / body weight
[29] = systemic / in life observation / body weight / body weight + systemic / in life observation / clinical signs / aggressive behavior + …
[30] = systemic / in life observation / food consumption / food consumption + systemic / organ weight / liver / absolute
[31] = systemic / in life observation / clinical signs / ocular discharge + systemic / in life observation / clinical signs / aggressive behavior…
[32] = systemic / pathology microscopic / kidney / karyomegaly
[33] = systemic / in life observation / body weight / body weight + systemic / in life observation / clinical signs / [other] + systemic / in life …
[34] = systemic / clinical chemistry / gamma glutamyl transferase (ggt) / gamma glutamyl transferase (ggt)
[35] = systemic / pathology microscopic / nerve / degeneration + systemic / pathology microscopic / spinal cord / degeneration + systemic / …
[36] = systemic / in life observation / clinical signs / ataxia + systemic / pathology microscopic / brain / vacuolization
[37] = systemic / in life observation / clinical signs / ataxia + systemic / pathology microscopic / brain / vacuolization + systemic / in life …
[38] = group: developmental, developmental / developmental malformation / bone / enlarged fontanel + developmental / developmental malformation / bone / incomplete …
[39] = group: maternal, systemic / in life observation / body weight / body weight gain
[40] = systemic / pathology microscopic / spleen / hyperplasia + systemic / clinical chemistry / calcium / calcium + systemic / clinical chemistry…
[41] = systemic / pathology microscopic / kidney / cytomegaly + systemic / pathology microscopic / kidney / karyomegaly + systemic / organ weight…
[42] = group: cholinesterase, cholinesterase / cholinesterase / cholinesterase / cholinesterase (che)
[43] = group: systemic, systemic / organ weight / kidney / absolute + systemic / organ weight / kidney / relative to body weight + systemic / organ weight / liver…
[44] = systemic / pathology microscopic / brain / degeneration + systemic / clinical chemistry / alanine aminotransferase (alt/sgpt) / alanine …
[45] = systemic / pathology microscopic / brain / degeneration + systemic / pathology microscopic / brain / necrosis + systemic / pathology …
[46] = systemic / pathology microscopic / kidney / karyomegaly + systemic / pathology microscopic / harderian gland / adenoma
[47] = systemic / pathology microscopic / adrenal gland / pheochromocytoma nos + systemic / pathology microscopic / liver / carcinoma + systemic / …
[48] = systemic / pathology microscopic / liver / carcinoma + systemic / in life observation / mortality / mortality + systemic / in life …

## O=C1O[C@H]([C@H](O)CO)C([O-])=C1O.[Na+] [Sodium erythorbate (1:1)]
Mouse [1]; systemic / in life observation / body weight / body weight gain + systemic / in life observation / mortality / mortality + systemic / …
  NEL: 3330 mg/kg/day
Mouse [1]; systemic / in life observation / body weight / body weight gain + systemic / pathology microscopic / kidney / degeneration + systemic / …
  LEL: 6670 mg/kg/day
Mouse [1]; [23]
  LOAEL: > 13300 mg/kg/day
  NOAEL: ≥ 13300 mg/kg/day
Mouse [2]; [24]
  LEL: 1670 mg/kg/day
  NEL: < 1670 mg/kg/day
Mouse [2]; [25]
  LOAEL: > 6670 mg/kg/day
  NOAEL: ≥ 6670 mg/kg/day

## O=c1c(C2CC(c3ccc(-c4ccc(Br)cc4)cc3)Cc3ccccc32)c(O)sc2ccccc12 (stereo unspecified) [Difethialone]
Rat [3]; [26]
  LEL: 0.002 mg/kg/day
  NEL: < 0.002 mg/kg/day
Rat [3]; [27]
  LOAEL: 0.008 mg/kg/day
  NOAEL: 0.004 mg/kg/day

## C[C@](N)(Cc1ccc(O)c(O)c1)C(=O)O.C[C@](N)(Cc1ccc(O)c(O)c1)C(=O)O.O.O.O [Methyldopa sesquihydrate]
Rat [4]; [28]
  LOAEL: 110 mg/kg/day
  NOAEL: < 110 mg/kg/day
Rat [4]; [29]
  LEL: 110 mg/kg/day
  NEL: < 110 mg/kg/day
Rat [5]; [30]
  LEL: 155 mg/kg/day
  NEL: < 155 mg/kg/day
Rat [5]; systemic / pathology microscopic / kidney / regeneration + systemic / in life observation / body weight / body weight
  LOAEL: 625 mg/kg/day
Rat [5]; systemic / pathology microscopic / kidney / regeneration + systemic / in life observation / body weight / body weight + systemic / in life …
  NOAEL: 315 mg/kg/day
Mouse [6]; [31]
  LEL: 465 mg/kg/day
  NEL: < 465 mg/kg/day
Mouse [6]; [32]
  LOAEL: 1880 mg/kg/day
Mouse [6]; systemic / pathology microscopic / kidney / karyomegaly + systemic / in life observation / body weight / body weight + systemic / in life …
  NOAEL: 945 mg/kg/day
Mouse [7]; [28]
  LOAEL: 830 mg/kg/day
  NOAEL: < 830 mg/kg/day
Mouse [7]; [33]
  LEL: 830 mg/kg/day
  NEL: < 830 mg/kg/day

## Cc1cc(C)nc(NC(=O)NS(=O)(=O)c2ccccc2C(=O)OC2COC2)n1 [Oxasulfuron]
Rat [8]; [34]
  LEL: 0.84 mg/kg/day
  LOAEL: 83 mg/kg/day
  NEL: < 0.84 mg/kg/day
Rat [8]; systemic / clinical chemistry / gamma glutamyl transferase (ggt) / gamma glutamyl transferase (ggt) + systemic / pathology microscopic / …
  NOAEL: 8.3 mg/kg/day
Mouse [9]; systemic / pathology microscopic / nerve / degeneration + systemic / pathology microscopic / spinal cord / degeneration
  LOAEL: 99.1 mg/kg/day
Mouse [9]; systemic / pathology microscopic / nerve / degeneration + systemic / pathology microscopic / spinal cord / degeneration + systemic / organ …
  LEL: 99.1 mg/kg/day
Mouse [9]; [35]
  NEL: 1.5 mg/kg/day
  NOAEL: 1.5 mg/kg/day
Dog [10]; [36]
  LEL: 10.7 mg/kg/day
  LOAEL: 10.7 mg/kg/day
Dog [10]; [37]
  NEL: 1.3 mg/kg/day
  NOAEL: 1.3 mg/kg/day
Rat [11]; [38]
  LEL: 1000 mg/kg/day
  LOAEL: 1000 mg/kg/day
  NEL: 300 mg/kg/day
  NOAEL: 300 mg/kg/day
Rat [11]; [39]
  LEL: 1000 mg/kg/day
  LOAEL: 1000 mg/kg/day
  NEL: 300 mg/kg/day
  NOAEL: 300 mg/kg/day
Rat [12]; systemic / clinical chemistry / chloride / chloride + systemic / clinical chemistry / cholesterol / cholesterol
  LEL: 15.3 mg/kg/day
Rat [12]; systemic / pathology microscopic / spleen / hyperplasia
  LOAEL: 316 mg/kg/day
Rat [12]; [40]
  NEL: 0.62 mg/kg/day
  NOAEL: 15.3 mg/kg/day

## Cc1ccc(N=CN(C)C=Nc2ccc(C)cc2C)c(C)c1 [Amitraz]
Rat [13]
  LEL: 3.13 mg/kg/day
  LOAEL: 3.13 mg/kg/day
  NEL: 0.97 mg/kg/day
  NOAEL: 0.97 mg/kg/day
Dog [14]
  LEL: 1 mg/kg/day
  LOAEL: 1 mg/kg/day
  NEL: 0.25 mg/kg/day
  NOAEL: 0.25 mg/kg/day
Mouse [15]
  LEL: 2.31 mg/kg/day
  LOAEL: 2.31 mg/kg/day
  NEL: < 2.31 mg/kg/day
  NOAEL: < 2.31 mg/kg/day

## Oc1ccccc1Cl [2-Chlorophenol]
Rat [16]
  LEL: 25 mg/kg/day
  LOAEL: > 25 mg/kg/day
  NEL: 2.5 mg/kg/day
  NOAEL: ≥ 25 mg/kg/day

## O=P(OCCCl)(OCCCl)OCCCl [Tris(2-chloroethyl) phosphate]
Mouse [17]; systemic / organ weight / liver / absolute + systemic / organ weight / liver / relative to body weight + systemic / organ weight / kidney / …
  LEL: 175 mg/kg/day
Mouse [17]; systemic / pathology microscopic / kidney / cytomegaly + systemic / pathology microscopic / kidney / karyomegaly
  LOAEL: 700 mg/kg/day
Mouse [17]; [41]
  NEL: 88 mg/kg/day
  NOAEL: 350 mg/kg/day
Rat [18]; [42]
  LEL: 175 mg/kg/day
  LOAEL: 175 mg/kg/day
  NEL: 88 mg/kg/day
  NOAEL: 88 mg/kg/day
Rat [18]; group: systemic, systemic / in life observation / clinical signs / hyperactivity + systemic / pathology microscopic / brain / necrosis
  LOAEL: 175 mg/kg/day
Rat [18]; [43]
  LEL: 44 mg/kg/day
  NEL: 22 mg/kg/day
  NOAEL: 88 mg/kg/day
Rat [19]; [44]
  NEL: 44 mg/kg/day
  NOAEL: 44 mg/kg/day
Rat [19]; [45]
  LEL: 88 mg/kg/day
  LOAEL: 88 mg/kg/day
Mouse [20]; [32]
  LOAEL: 175 mg/kg/day
  NOAEL: < 175 mg/kg/day
Mouse [20]; [46]
  LEL: 175 mg/kg/day
  NEL: < 175 mg/kg/day

## ClCC(Cl)Cl [1,1,2-Trichloroethane]
Mouse [21]; [47]
  LOAEL: > 390 mg/kg/day
  NOAEL: ≥ 390 mg/kg/day
Mouse [21]; [48]
  LEL: 195 mg/kg/day
  NEL: < 195 mg/kg/day
Rat [22]
  LEL: 46 mg/kg/day
  LOAEL: > 92 mg/kg/day
  NEL: < 46 mg/kg/day
  NOAEL: ≥ 92 mg/kg/day
